According to patent US20210077567A1, “Targeted Angiotensin 1-7 Peptide Conjugates and Formation and Use Thereof” (IDAHO STATE UNIVERSITY, priority 2019, published 2021):
Marks after values point to notes of the source that are not given here.

Columns and labels:
[1] = Stability of the conjugate in solution by HPLC-UV; type: physicochemical
Protocol: At 1, 3, 7, 10, 15, 30 days; 100 μL of the solutions were sampled and after adding stable Ang II as internal standard samples analyzed by HPLC-UV to monitor the stability of the conjugate over time. Table 3, below, provides the percent of the Ang peptide conjugate remaining in each sample after storage for 4 weeks.

[2] = test system: adjuvant-induced arthritis; experiment: Adjuvant-induced arthritis rat model (body weight, paw and joint diameters, plasma NO); type: in vivo, male Sprague Dawley rats; conditions: for inflammation and swelling of paws and joints (in words): preventive and treatment groups; for Mean body weight (SD); body weight gain (%) compared with day 1 / Mean body weight (SD); body weight gain (%) after 7 days of dosing: inflamed animals
Protocol: (§1) The Ang peptide conjugate described in Example 1 was examined for anti-inflammatory effect on adjuvant-induced arthritis in a rat animal model. On day one, for induction of adjuvant arthritis, male Sprague Dawley rats were injected at the tail base with 0.2 mL of 50 mg/mL Mycobacterium butyricum. Arthritic animals were divided into 4 groups and treated with saline, Ang II, Ang 1-7 or Ang peptide conjugate. A group of healthy rats received vehicle as control group. Preventive and treatment groups subcutaneously received 200 μg/kg equitant dose daily from day one for 3 weeks or after emergence of arthritis for 1 week, respectively. Animals were monitored daily for their body weight, paw and joint diameters. Animals were then euthanized, plasma/tissues were harvested and analyzed for plasma nitric oxide (NO), and the RAS components.

[3] = test system: mRNA of RAS components (ACE, ACE2, AT1R, Mas receptor) in cancer cell line HSSY1; experiment: Quantitative PCR of RAS component gene expression; type: cell-based; conditions: FIG. 12
Excerpt: (§2) The viability of several different cancer cell lines including FUUR1, MoJo, SYO1, and the sarcoma cell line HSSY1 using the MTT assay across multiple concentrations and time points and compared with native Ang 1-7 as positive control and Ang II as negative control. The impact of Mas receptor activation by Ang peptide conjugate on gene expression of different components of the RAS, such as ACE1, ACE2, AT1R. Mas receptor was also studied using quantitative PCR using the different cancerous cell lines.

[4] = Tissue distribution of radiolabeled peptides; type: in vivo; conditions: rats, i.v. or s.c.; FIG. 9
Protocol: (§3) Pharmacokinetic studies were conducted using rats for calculation of biological half-life and other pharmacokinetic parameters of the conjugates in comparison with native peptides. The tissue distribution of conjugates was conducted on main organs, such as bone (major target), heart, liver, kidney, lung, etc.

osteosarcoma tumors = experiment: Osteosarcoma tumor-bearing mouse model, tumor size; type: in vivo, mice; conditions: s.c. twice daily, equivalent dose of Ang 1-7 of 400 μg/kg, three weeks; FIG. 13
Protocol: The Ang peptide conjugate described in Example 1 was examined for inhibition of the RAS in an advanced form of osteosarcoma. For the in vivo study, a group of mice bearing osteosarcoma tumors was divided into three different groups and subcutaneously dosed twice daily with vehicle (PEG 400: normal Saline, 3:2), Ang 1-7, or Ang peptide conjugate (equivalent dose of Ang 1-7 of 400 μg/kg) for three weeks. The tumor size was measured three times a week. Tumor tissues were harvested and kept in appropriate medium in −80° C. for further analysis of different cancer biomarkers.

[5] = test system: cardiac ACE2, ACE and Mas receptor expression; experiment: Cardiac RAS component expression in adjuvant-induced arthritis rats; type: in vivo; conditions: for cardiac ACE2/ACE ratio: preventive treatment, FIG. 16, 17; for cardiac Mas receptor expression: treatment after establishment of inflammation, FIG. 18, 19
Protocol: as §1, with “On” for “The Ang peptide conjugate described in Example 1 was examined for anti-inflammatory effect on adjuvant-induced arthritis in a rat animal model. On”

[6] = Pharmacokinetic study, plasma half-life; type: in vivo, rats
Protocol: as §3

[7] = test system: synovial sarcoma cell lines SYO1 and MoJo, renal carcinoma cell line FUUR1; experiment: In vitro cell viability / anti-proliferative activity on cancer cell lines (Example 1); type: cell-based; conditions: various concentrations, FIG. 6-8
Protocol: Upon confirmation of final chemical structure of the active conjugates, the anti-proliferative activity was tested using different cancer cell lines, including synovial sarcoma cell lines SYO1 and MoJo, and the renal carcinoma cell line FUUR1. Results comparing the percent viability of the tested cell lines upon incubation with AngII, Ang1-7, or the Ang peptide conjugate are provided in FIG. 6 (SYO1), FIG. 7 (MoJo) and FIG. 8 (FUUR1). The cell lines were incubated with concentrations of the tested materials at various concentrations, as shown.

[8] = test system: FUUR1, MoJo, SYO1 and HSSY1 cancer cell lines; experiment: MTT viability/proliferation assay on cancer cell lines (Example 2); type: cell-based; conditions: all cell lines tested (FUUR1, MoJo, SYO1, HSSY1); multiple concentrations; FIG. 11
Excerpt: as §2

[9] = preventive arm, compared with day 1
[10] = treatment arm, after 7 days of dosing

Q: Which “percent of conjugate remaining” value ([1]; Acetate buffer (pH 5.5), 4 °C, 5 days) does the source give for “Ang peptide conjugate: Ang 1-7 peptide bonded at N-terminus to 27-mer mono-disperse PEG(maleimide)2 spacer conjugated with a thiol-bisphosphonate” here?
A: Its value is 98.4%.

Q: And the “percent of conjugate remaining” value ([1]; Acetate buffer (pH 5.5), 4 °C, 28 days)?
A: Its value is 98.0%.

Q: What about the “percent of conjugate remaining” value ([1]; Acetate buffer (pH 5.5), 25 °C, 5 days) of the same substance?
A: The value was 94.3%.

Q: And the “percent of conjugate remaining” value ([1]; Acetate buffer (pH 5.5), 25 °C, 28 days)?
A: The value was 93.3%.

Q: What about the “percent of conjugate remaining” value ([1]; Acetate buffer (pH 5.5), −20 °C, 5 days) of the same substance?
A: Its value is 99.8%.

Q: What about the “percent of conjugate remaining” value ([1]; Acetate buffer (pH 5.5), −20 °C, 28 days) of the same substance?
A: The value was 99.5%.

Q: And the “percent of conjugate remaining” value ([1]; D. D. Water (pH 6.5), 4 °C, 5 days)?
A: The value was 95.9%.

Q: What about the “percent of conjugate remaining” value ([1]; D. D. Water (pH 6.5), 4 °C, 28 days) of the same substance?
A: Its value is 92.4%.

Q: And the “percent of conjugate remaining” value ([1]; D. D. Water (pH 6.5), 25 °C, 5 days)?
A: The value was 90.6%.

Q: What about the “percent of conjugate remaining” value ([1]; D. D. Water (pH 6.5), 25 °C, 28 days) of the same substance?
A: Its value is 64.0%.

Q: What about the “percent of conjugate remaining” value ([1]; D. D. Water (pH 6.5), −20 °C, 5 days) of the same substance?
A: The value was 99.5%.

Q: What about the “percent of conjugate remaining” value ([1]; D. D. Water (pH 6.5), −20 °C, 28 days) of the same substance?
A: Its value is 99.1%.

Q: And the “percent of conjugate remaining” value ([1]; Phosphate buffer (pH 7.4), 4 °C, 5 days)?
A: Its value is 91.9%.

Q: And the “percent of conjugate remaining” value ([1]; Phosphate buffer (pH 7.4), 4 °C, 28 days)?
A: Its value is 79.2%.

Q: And the “percent of conjugate remaining” value ([1]; Phosphate buffer (pH 7.4), 25 °C, 5 days)?
A: The value was 72.8%.

Q: And the “percent of conjugate remaining” value ([1]; Phosphate buffer (pH 7.4), 25 °C, 28 days)?
A: Its value is 22.6%.

Q: What about the “percent of conjugate remaining” value ([1]; Phosphate buffer (pH 7.4), −20 °C, 5 days) of the same substance?
A: The value was 99.2%.

Q: And the “percent of conjugate remaining” value ([1]; Phosphate buffer (pH 7.4), −20 °C, 28 days)?
A: The value was 98.9%.

Q: What about the “inflammation and swelling of paws and joints (in words)” value (from here on “inflammation and swelling”) [2] of the same substance?
A: Its value is “reduced the inflammation and swelling to a comparable level with the control group”.

Q: What about the “Difference vs. Inf- Vehicle in body weight gain (%)” value (from here on “Difference vs. Inf- Vehicle … (%)”) [2, 9] of the same substance?
A: Its value is 6.22%.

Q: And the “Mean body weight (SD); body weight gain (%) compared with day 1” value ([2]; preventive arm)?
A: The value was 15.1 (12.0) %.

Q: And the “plasma level of NO” value ([2]; preventive arm, 200 μg/kg s.c. daily from day one for 3 weeks, FIG. 14)?
A: The value was “reduce the elevated plasma level of NO”.

Q: What about the “Difference vs. Inf- Vehicle … (%)” value [2, 10] of the same substance?
A: The value was 3.0%.

Q: And the “Mean body weight (SD); body weight gain (%) after 7 days of dosing” value ([2]; treatment arm)?
A: The value was 7.3 (4.3) * %.

Q: What about the “plasma level of NO” value ([2]; treatment arm, 200 μg/kg s.c. daily for 1 week after emergence of arthritis, FIG. 15) of the same substance?
A: Its value is “reduce the elevated plasma level of NO”.

Q: And the ACE2 gene expression [3]?
A: Its ACE2 gene expression is “significantly higher”.

Q: And the ACE gene expression [3]?
A: The ACE gene expression was “enhanced to some level”.

Q: What about the AT1R gene expression [3] of the same substance?
A: The AT1R gene expression was “enhanced to some level”.

Q: And the “Mas receptor gene expression” value [3]?
A: Its value is “significantly higher”.

Q: What about the “tissue distribution compared with native peptides” value [4] of the same substance?
A: The value was “higher affinity to thyroid and bone”.

Q: What about the tumor growth inhibition (osteosarcoma tumors) of the same substance?
A: Its tumor growth inhibition is “potently inhibited tumor growth after 3-4 days”.

Q: What about the “cardiac ACE2/ACE ratio” value [5] of the same substance?
A: The value was “restored this balance”.

Q: What about the “cardiac Mas receptor expression” value [5] of the same substance?
A: The value was “restored this balance”.

Q: What about the “increase in plasma half-life as compared to the native peptide” value ([6]; after intravenous administration) of the same substance?
A: Its value is 10 fold.

Q: And the “increase in half-life as compared to the native peptide” value ([6]; after subcutaneous injection)?
A: The value was 15 fold.

Q: What about the “half-life compared with native peptides” value ([6]; rats, FIG. 10) of the same substance?
A: The value was “longer half-life”.

Q: And the “cell viability compared with native peptides” value [7]?
A: Its value is “superior activity”.

Q: And the “effect on cell proliferation” value [8]?
A: Its value is “anti-proliferative effect was more pronounced”.

Q: With “Angiotensin 1-7 (DRVYIHP) [Ang 1-7, reference compound]” as the substance, how does the “inflammation and swelling” value [2] read?
A: Its value is “reduced the inflammation and swelling to a comparable level with the control group”.

Q: And the “Difference vs. Inf- Vehicle … (%)” value [2, 9]?
A: Its value is 4.78%.

Q: What about the “Mean body weight (SD); body weight gain (%) compared with day 1” value ([2]; preventive arm) of the same substance?
A: Its value is 13.6 (8.8) %.

Q: What about the “Difference vs. Inf- Vehicle … (%)” value [2, 10] of the same substance?
A: The value was 5.7%.

Q: What about the “Mean body weight (SD); body weight gain (%) after 7 days of dosing” value ([2]; treatment arm) of the same substance?
A: Its value is 10.0 (4.8) * %.

Q: And the ACE2 gene expression [3]?
A: Its ACE2 gene expression is “did not significantly change”.

Q: What about the ACE gene expression [3] of the same substance?
A: Its ACE gene expression is “very large effect”.

Q: What about the AT1R gene expression [3] of the same substance?
A: The AT1R gene expression was “did not significantly change”.

Q: And the “Mas receptor gene expression” value [3]?
A: Its value is “did not significantly change”.

Q: And the tumor growth inhibition (osteosarcoma tumors)?
A: The tumor growth inhibition was “milder effect after 10 days”.

Q: What about the “cardiac ACE2/ACE ratio” value [5] of the same substance?
A: The value was “restored this balance”.

Q: What about the “cardiac Mas receptor expression” value [5] of the same substance?
A: The value was “restored this balance”.

Q: What about the “effect on cell proliferation” value [8] of the same substance?
A: The value was “significant concentration dependent decrease on cell proliferation”.

Q: With “Angiotensin II (DRVYIHPF; Angiotensin-2; UniProt P01019 25-32, looked up) [Ang II, native Angiotensin II peptide, pro-inflammatory agent, negative control]” as the substance, how does the “inflammation and swelling” value [2] read?
A: The value was “made the situation worse”.

Q: What about the “Difference vs. Inf- Vehicle … (%)” value [2, 9] of the same substance?
A: The value was 4.32%.

Q: What about the “Mean body weight (SD); body weight gain (%) compared with day 1” value ([2]; preventive arm) of the same substance?
A: The value was 13.2 (3.1) %.

Q: What about the “effect on cell proliferation” value [8] of the same substance?
A: Its value is “remarkable proliferative effect”.
